From patent US6350759B1, “Dihydro- and tetrahydro-quinoline compounds” (Adir et Compagnie, priority 1998, dated 2002)

System: Wistar rat
Assay: Neuroprotection in transient and global cerebral ischaemia in the Wistar rat
Type: in vivo
Conditions: administration 30 minutes before the start of the ischaemia; count 7 days after
Method: This animal model (Pulsinelli and Brierley, Stroke 10, 267-272, 1979), is commonly used for the detection of central anti-ischaemic agents (Buchan et al., Neurosci. Lett., 132(2), 255-258, 1991).
Under pentobarbital anaesthesia, the vertebral arteries of male Wistar rats (280-320 g, Charles River) are permanently occluded by electrocoagulation and carotid ligatures are placed around each common carotid. 24 hours later, ischaemia is brought about for […] by clamping the carotids with the carotid ligatures. This ischaemic episode causes delayed neurone death at the level of the pyramidal cells of the hippocampus. Neurone death is measured by a neurone count on sections of brain (7 μm, staining: hematoxylin-eosin) of rats sacrificed 7 days after the ischaemic episode. The results are expressed as a percentage of viable hippocampal neurones compared with the total hippocampal neurone population. […] That is true especially of the compound of Example 1, which, on administration 30 minutes before the start of the ischaemia, induces a reduction by a factor of 2.7.

Q: Which “reduction of hippocampal neurone death, factor” value does the source give for `CCOc1ccc2c(c1)C=CC1(CCCCC1)N2.Cl` [Example 1, 6-Ethoxy-1,2-dihydroquinoline-2-spirocyclohexane hydrochloride] here?
A: 2.7

System: Wistar rat
Assay: Delayed hippocampal neurodegeneracy induced by kainic acid in the Wistar rat
Type: in vivo
Conditions: 150 mg/kg i.p. 30 minutes before kainic acid 12 mg/kg s.c.; count 7 days later
Method: This method is frequently used as a model of temporal epilepsy in humans (Ben-Ari, Neurosci., 14, 375-403, 1985).
Male Wistar rats (180-220 g, CERJ) are given kainic acid (12 mg/kg) by the subcutaneous route. The animals are sacrificed by decapitation 7 days later. The brains are removed and then cut, in the frozen state, into frontal sections of 7 μm, which are stained (hematoxylin-eosin). Hippocampal neurone death is assessed by a neurone count at the level of the CA3 layer of the hippocampus. The results are expressed as a percentage of viable neurones in the CA3 layer compared with the total neurone population.

Q: Which “reduction in neurone death (CA3 layer), factor” value does the source give for `CCOc1ccc2c(c1)C=CC1(CCCCC1)N2.Cl` [Example 1, 6-Ethoxy-1,2-dihydroquinoline-2-spirocyclohexane hydrochloride] here?
A: 3

System: C57BL/6 mouse
Assay: Antagonism of dopaminergic striatonigral dysfunctions induced by methamphetamine in the C57BL/6 mouse
Type: in vivo
Conditions: dose 2×150 mg/kg i.p.
Method: Male mice (C57BL/6 20-25 g) are given four injections of d-methamphetamine (5 mg/kg base, i.p.) at intervals of 2 hours (Sonsalla and Heikkila, Prog. Neuro-Psychopharmacolo. & Biol. Psychiat., 12, 345-354, 1988) and the anti-oxidant being tested is administered (i.p.) 30 minutes before the first and third injections of d-methamphetamine (Yamamoto and Zhu, J. Pharmacol. Exp. Ther. 287, 107-114, 1988). The rectal temperature is monitored throughout the duration of the experiment. The animals are sacrificed by decapitation 72 hours after the last injection of d-methamphetamine. The brains are rapidly extracted, and the striata are removed, frozen in liquid nitrogen and weighed. The striata are homogenised by sonication in 20 volumes of 0.1N HClO4, and the homogenate is centrifuged at 15000 g for 20 minutes at 4° C. The supernatants are collected for assaying the striata tissue levels of dopamine by means of HPLC coupled with coulometric detection (Bonhomme et al., Brain Res., 675, 215-233, 1995). The results are expressed as μg of dopamine/g of tissue. […] That is true especially of the compound of Example 1 administered in a dose of 2×150 mg/kg i.p.

Q: For `CCOc1ccc2c(c1)C=CC1(CCCCC1)N2.Cl` [Example 1, 6-Ethoxy-1,2-dihydroquinoline-2-spirocyclohexane hydrochloride], which “effect on dopaminergic deficit induced by methamphetamine (striatal dopamine)” value is on record?
A: oppose the dopaminergic deficit

System: not given
Assay: not given
Conditions: not given

Q: Which melting point does the source give for `CC(C)(C)Oc1ccc2c(c1)C=CC1(CCCCC1)N2.Cl` here?
A: 132 °C

Q: For `CCOc1cccc2c1NC1(C=C2)CCCCC1.Cl`, which melting point is on record?
A: 154 to 155 °C

Q: For `CCOc1c(C)c(C)c2c(c1C)C=CC1(CCCCC1)N2.Cl`, which melting point is on record?
A: 158 to 161 °C

Q: For `CCOc1c(C(C)C)cc2c(c1C(C)C)CCC(C)(C)N2.Cl`, which melting point is on record?
A: 227 to 230 °C

Q: Which melting point does the source give for `COc1ccc2c(c1)C=CC1(CCCCC1)N2.Cl` here?
A: 191 °C

Q: For `CC(C)(C)C(=O)Oc1ccc2c(c1)C=CC1(CCCCC1)N2.Cl`, which melting point is on record?
A: 180 °C

Q: Which melting point does the source give for `C1=CC2(CCCCC2)Nc2ccc(Oc3ccccc3)cc21.Cl` here?
A: 176 °C

Q: With `CCOc1c(C)c(C)c2c(c1C)CCC1(CCCCC1)N2.Cl` as the compound, how does the melting point read?
A: 192 to 198 °C (dec.)

Q: Which melting point does the source give for `CCOc1c(C(C)C)cc2c(c1C(C)C)C=CC1(CCCCC1)N2.Cl` here?
A: 166 to 169 °C (dec.)

Q: With `CCOc1c(C)cc2c(c1C)C=CC1(CCCCC1)N2.Cl` as the compound, how does the melting point read?
A: 175 to 180 °C
